Data set [1] deals with secretion of other anterior pituitary hormones. In words: Blood concentrations of other anterior pituitary hormones after single dose administration in human (Phase 1 study). The class given is in vivo. As to conditions: healthy Japanese adult men; single oral dose 1 mg or 10 mg. How it is done: (§1) The examples in this section show the measurement results of blood anterior pituitary hormone concentrations using blood samples from a dose escalation study targeting healthy Japanese adult men, from A Randomized, Double-Blind, Placebo-Controlled, Phase 1 Study (jRCT2051210027) targeting healthy adults, which was conducted to examine the safety and tolerability, pharmacokinetics, and pharmacodynamic action of a single administration of test compound 1.
In a randomized, double-blind, placebo-controlled, parallel-group comparison, dose-escalation study consisting of 7 cohorts, a single dose of test compound 1 (1, 3, 10, 20, 40, 80 and 160 mg) or placebo was orally administered under fasting conditions. Eight test subjects (6 in the active drug group and 2 in the placebo group) participated in each cohort. The concomitant use of all medications was prohibited from 28 days before hospitalization until discharge.
The test subjects were inspected and examined within 28-2 days and 1 day before administration of test compound 1, and eligibility was confirmed based on the above-mentioned inclusion criteria and exclusion criteria. […] They were fasted for 10 hr before administration and 4 hr after administration until lunch, and took lunch at 13:[…]. The blood was collected 0.5 hr before and 1, 2, 4, 6, 8, and 10 hr after administration of test compound 1.
The concentration of anterior pituitary hormone was measured using blood from the placebo administration group of all cohorts and the test subjects who received administration of 1 mg or 10 mg of test compound 1, at 0.5 hr before administration and 2, 4, 6, 8, and 10 hr after administration. The concentrations of growth hormone, follicle-stimulating hormone, luteinizing hormone, thyroid-stimulating hormone, adrenocorticotropic hormone, and prolactin in blood were measured using the Human Growth Hormone Quantikine ELISA Kit (manufactured by R&D Systems), Follicle-Stimulating Hormone (Human) ELISA Kit (manufactured by Cayman Chemical), Luteinizing Hormome (Human) ELISA Kit (manufactured by Cayman Chemical), U-TSH ELISA (manufactured by BIOCHECK), ACTH ELISA Kit (manufactured by MB Biosciences GmbH), and Human Prolactin Quantikine ELISA Kit (manufactured by R&D Systems) according to the protocol described in the package insert of each kit.
The time course changes in the blood anterior pituitary hormone concentrations after oral administration of placebo (n=14) or test compound 1 at doses of 1 mg and 10 mg (n=6 for each) are shown in FIG. 1-6.

For data set [2], the system named is growth hormone secretion. In words: Growth hormone secretion enhancing action by single dose administration in human (Phase 1 study). The format is in vivo. How it is done:
as §1
In a randomized, double-blind, placebo-controlled, parallel-group comparison, dose-escalation study consisting of 7 cohorts, a single dose of test compound 1 (1, 3, 10, 20, 40, 80 and 160 mg) or placebo was orally administered under fasting conditions. Eight test subjects (6 in the active drug group and 2 in the placebo group) participated in each cohort. The concomitant use of all medications was prohibited from 28 days before hospitalization until discharge. […]
The concentration of anterior pituitary hormone was measured using blood from the placebo administration group of all cohorts and the test subjects who received administration of 1 mg or 10 mg of test compound 1, at 0.5 hr before administration and 2, 4, 6, 8, and 10 hr after administration. […]

In data set [3] the target is T1, human SSTR 5 (Homo sapiens, UniProt P35346).
T1 construct: expressed in transfected cells; host or cells: CHO-K1 cells (membrane fraction)
T1 sequence (P35346 whole entry): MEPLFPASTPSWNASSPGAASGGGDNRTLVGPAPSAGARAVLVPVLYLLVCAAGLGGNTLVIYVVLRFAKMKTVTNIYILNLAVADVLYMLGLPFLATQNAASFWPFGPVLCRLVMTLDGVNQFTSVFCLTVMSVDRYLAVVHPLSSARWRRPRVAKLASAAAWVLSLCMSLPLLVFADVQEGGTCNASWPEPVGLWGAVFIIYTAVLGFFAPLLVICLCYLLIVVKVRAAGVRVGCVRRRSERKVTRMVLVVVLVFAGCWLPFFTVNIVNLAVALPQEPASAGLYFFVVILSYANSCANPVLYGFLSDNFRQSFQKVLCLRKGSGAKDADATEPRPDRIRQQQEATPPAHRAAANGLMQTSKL
In words: Radiolabeled ligand binding assay, human SSTR subtype selectivity. As to conditions: SSTR5 versus SSTR1-4, 1 μM. How it is done:
The selectivity of test compounds for human SSTR subtypes was investigated by radiolabeled ligand binding assay. The membrane fraction of CHO-K1 cells expressing human SSTR1-5 was suspended in am assay buffer (25 mM HEPES (pH 7.4), 5 mM MgCl2, 1 mM CaCl2), 10 μg/mL saponin, 0.5% fatty-acid free BSA) and incubated for 1 hr in the presence of 1 μM test compound 1 and [^125I]Tyr^11-somatostatin 14 (Perkin Elmer). Thereafter, the solution containing the membrane fraction was transferred onto a filter plate, and after washing the filter six times with a wash buffer (25 mM HEPES, 5 mM MgCl2, 1 mM CaCl2), 50 μL of Microscint 20 (Packard) was added, and the radioactivity was measured using a TopCount (Perkin Elmer). The results of competitive activity of the test compound against the binding of the human SSTR subtypes with the labeled ligands are shown in Table 2.

As to `CCCc1nc2c(cc1C(=O)O)C(=O)N(C1CCN(Cc3cc(C4CC4)c(-c4ccc(F)cc4)cc3OCC)CC1)CC2` [test compound 1, 6-(1-((2-cyclopropyl-5-ethoxy-4′-fluorobiphenyl-4-yl)methyl)piperidin-4-yl)-5-oxo-2-propyl-5,6,7,8-tetrahydro-1,6-naphthyridine-3-carboxylic acid], in data set [1], the “secretion of adrenocorticotropic hormone (blood concentration)” value is listed as “did not substantially affect”, the “secretion of follicle-stimulating hormone (blood concentration)” value is given as “did not substantially affect”, the “secretion of luteinizing hormone (blood concentration)” value is “did not substantially affect” and the “secretion of prolactin (blood concentration)” value is on record as “did not substantially affect”. In data set [1], the “secretion of thyroid-stimulating hormone (blood concentration)” value was “did not substantially affect”. Moreover, the “growth hormone secretion (blood growth hormone concentration)” value in data set [2] (healthy Japanese adult men, single oral dose 1 mg or 10 mg, fasting, 2-10 hr after administration) is listed as “clearly enhance growth hormone secretion”. Besides, the “increase in blood growth hormone concentration compared with growth hormone replacement therapy” value in data set [2] (human, compared with literature values for patients with pediatric growth hormone deficiency) was “corresponds to the blood growth hormone concentration obtained by growth hormone replacement therapy”. In addition, in data set [3], the “selectivity of binding among the human SSTR subtypes” value is “selectively binds to SSTR5”.

The values are drawn from US20260232648A1, “GROWTH HORMONE SECRETION PROMOTER” (SCOHIA PHARMA, INC., priority 2023, published 2026).
